Among the data in patent US9173882B2, “Polycyclic heteroaryl substituted triazoles useful as Axl inhibitors” (Rigel Pharmaceuticals, Inc., priority 2008, dated 2015) are IC50 values, retold here.

The target of one assay is T1, Axl (Homo sapiens, UniProt P30530).
T1 construct: endogenous in cells; host or cells: HeLa cells
T1 sequence (P30530 26-894): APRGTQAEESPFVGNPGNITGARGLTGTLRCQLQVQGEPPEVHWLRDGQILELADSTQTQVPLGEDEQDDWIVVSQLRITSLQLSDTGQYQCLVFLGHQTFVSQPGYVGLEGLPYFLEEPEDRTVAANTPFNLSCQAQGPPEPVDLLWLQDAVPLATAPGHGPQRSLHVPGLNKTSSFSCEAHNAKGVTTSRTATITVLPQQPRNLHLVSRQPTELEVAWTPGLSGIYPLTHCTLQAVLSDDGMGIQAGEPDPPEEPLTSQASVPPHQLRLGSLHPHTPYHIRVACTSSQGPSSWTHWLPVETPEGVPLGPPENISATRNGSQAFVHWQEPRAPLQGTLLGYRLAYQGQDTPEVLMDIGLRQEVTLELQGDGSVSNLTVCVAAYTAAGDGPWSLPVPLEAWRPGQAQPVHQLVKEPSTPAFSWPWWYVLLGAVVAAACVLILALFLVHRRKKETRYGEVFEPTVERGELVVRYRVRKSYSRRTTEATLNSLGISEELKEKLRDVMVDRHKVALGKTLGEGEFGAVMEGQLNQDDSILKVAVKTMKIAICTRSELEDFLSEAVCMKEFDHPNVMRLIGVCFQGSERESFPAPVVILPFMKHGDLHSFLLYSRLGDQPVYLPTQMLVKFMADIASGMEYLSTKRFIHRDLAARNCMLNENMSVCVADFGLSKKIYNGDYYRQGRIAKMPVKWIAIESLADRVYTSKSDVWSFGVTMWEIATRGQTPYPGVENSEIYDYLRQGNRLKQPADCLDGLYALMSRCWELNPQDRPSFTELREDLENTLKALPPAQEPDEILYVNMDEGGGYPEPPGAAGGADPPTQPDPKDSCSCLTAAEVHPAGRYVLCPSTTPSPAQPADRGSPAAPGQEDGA
In words: Phospho-Akt in-cell Western assay. It is filed as cell-based. As to conditions: Hela cells, stimulated by Axl-antibody cross-linking, phospho-Akt chemiluminescence; Table 1, formula (Ia). As for the experimental part:
Phospho-Akt in-Cell Western Assay
The compounds of the invention were tested in the following assay for their ability to inhibit Axl activity.
• Cell culture plate: 96 well assay plate (Corning 3610), white, clear bottom, tissue-culture treated. • Cells: Hela cells. • Starvation medium: For Axl stimulation: 0.5% FCS (fetal calf serum) in DMEM, plus Axl/Fc (extracellular domain of AXL fused to imunoglobulin Fc region) (R&D, 154-AL) 500 ng/mL. • For EGF (epidermal growth factor) stimulation: 0.5% FCS in DMEM (Dulbecco's modified Eagles medium). • Poly-L-Lysine 0.01% solution (the working solution): 10 μg/ml, dilute In PBS (phosphate buffered saline). • Axl antibody cross-linking: • 1st: Mouse anti-Axl (R&D, MAB154). • 2nd: Biotin-SP-conjugated AffiniPure goat anti-mouse IgG (H+L) (Jackson ImmunoResearch #115-065-003). • Fixing buffer: 4% formaldehyde in PBS. • Wash buffer: 0.1% TritonX-100 in PBS. • Quenching buffer: 3% H2O2, 0.1% Azide in wash buffer, Azide and hydrogen peroxide (H2O2) are added fresh. • Blocking buffer: 5% BSA in TBST (tris buffered saline plus 0.1% Tween 20). • Primary antibody: Rabbit anti-human Phospho-Akt antibody (Cell Signaling 9271): 1×250 diluted in blocking buffer. • Secondary antibody: HRP (horse radish peroxidase)-conjugated Goat anti-Rabbit secondary, stock solution: Jackson ImmunoResearch (Goat anti-Rabbit HRP, #111-035-144) 1:1 diluted in glycerol, store at −20° C. The working solution: 1×2000 dilution of stock in blocking buffer. • Chemiluminescent working solution (Pierce, 37030): SuperSignal ELISA (enzyme linked immunosorbant assay) Pico Chemiluminescent substrate. • Crystal Violet solution: Stock: 2.5% Crystal violet in methanol, filtered and kept at ambient temperature. The working solution: dilute the stock 1:20 with PBS immediately before use. • 10% SDS: working solution: 5% SDS (sodium dodecylsulfate), diluted in PBS Methods: Day 1:
A 96 well TC (tissue culture treated) plate was coated with 10 μg/mL poly-L-Lysine at 37° C. for 30 min, washed twice with PBS, and air-dried for 5 minutes before cells were added. Hela cells were seeded at 10,000 cells/well and the cells were starved in 100 μL starvation medium containing Axl/Fc for 24 hrs.
The cells were pre-treated with test compounds by adding 100 μL of 2× test compound to the starvation medium on the cells. The cells were incubated at 37° C. for 1 hr before stimulation.
The cells were stimulated by Axl-antibody cross-linking as follows: A 5× 1st/2nd Axl antibody mixture was made (37.5 μg/mL 1st/100 μg/mL 2nd) in starvation medium and nutated at 4° C. with thorough mixing for 1-2 hours for clustering. The resulting mix was warmed to 37° C. 50 μL of 5× Axl 1st/2nd of antibody cluster was added to the cells and the cells were incubated at 37° C. for 5 min.
After 5 minutes stimulation, the plate was flicked to remove medium and the plate was tapped onto paper towels. Formaldehyde (4.0% in PBS, 100 μL) was added to fix the cells and the cells were incubated at ambient temperature for 20 min without shaking.
The cells were washed with a plate washer buffer to remove the formaldehyde solution. The plate was flicked to removed excess wash buffer and tapped onto paper towels. Quenching buffer (100 μL) was added to each well and the cells were incubated at ambient temperature for 20 minutes without shaking.
The cells were washed with a plate washer buffer to remove the quenching buffer. Blocking buffer (100 μL) was added and the cells were incubated at ambient temperature for at least an hour with gentle shaking.
The cells were washed with a plate washer buffer and diluted primary antibody (50 μL) was added to each well (blocking buffer was added to the negative control wells instead). The plates were incubated overnight at 4° C. with gentle shaking.
The wash buffer was removed, diluted secondary antibody (100 μL) was added, and the cells were incubated at ambient temperature for 1 hour with gentle shaking. […]
In general, IC50 refers to the concentration that inhibits the measured activity by half. Read a high IC50 as a need for much substance. Turning to `CC(=O)NC1CCc2ccc(Nc3nc(N)n(-c4cc5c(nn4)-c4ccccc4CCC5)n3)cc2CC1` (centres unmarked) [Compound 1, 1-(6,7-dihydro-5H-benzo[6,7]cyclohepta[1,2-c]pyridazin-3-yl)-N^3-(7-(acetamido)-6,7,8,9-tetrahydro-5H-benzo[7]annulene-2-yl)-1H-1,2,4-triazole-3,5-diamine], the IC50 is less than 1 µM.

For `COC(=O)[C@H]1CCCN1C1CCc2ccc(Nc3nc(N)n(-c4cc5c(nn4)-c4ccccc4CCC5)n3)cc2CC1` (stereo partly drawn) [Compound 2, 1-(6,7-dihydro-5H-benzo[6,7]cyclohepta[1,2-c]pyridazin-3-yl)-N^3-(7-((2R)-2-(methoxycarbonyl)pyrrolidin-1-yl)-6,7,8,9-tetrahydro-5H-benzo[7]annulene-2-yl)-1H-1,2,4-triazole-3,5-diamine], the IC50 was less than 1 µM.

With `Nc1nc(Nc2ccc3c(c2)CCC(N2CCC(F)(F)CC2)CC3)nn1-c1cc2c(nn1)-c1ccccc1CCC2` (centres unmarked) [Compound 3, 1-(6,7-dihydro-5H-benzo[6,7]cyclohepta[1,2-c]pyridazin-3-yl)-N^3-(7-(4,4-difluoropiperidin-1-yl)-6,7,8,9-tetrahydro-5H-benzo[7]annulene-2-yl)-1H-1,2,4-triazole-3,5-diamine], the IC50 is 1 to 10 µM.

As to `COC(=O)CN(C)C1CCc2ccc(Nc3nc(N)n(-c4cc5c(nn4)-c4ccccc4CCC5)n3)cc2CC1` (centres unmarked) [Compound 4, 1-(6,7-dihydro-5H-benzo[6,7]cyclohepta[1,2-c]pyridazin-3-yl)-N^3-(7-((methoxycarbonylmethyl)(methyl)amino)-6,7,8,9-tetrahydro-5H-benzo[7]annulene-2-yl)-1H-1,2,4-triazole-3,5-diamine], the IC50 is less than 1 µM.

`Nc1nc(Nc2ccc3c(c2)CCC(N2CCC[C@@H]2C(=O)O)CC3)nn1-c1cc2c(nn1)-c1ccccc1CCC2` (stereo partly drawn) [Compound 5, 1-(6,7-dihydro-5H-benzo[6,7]cyclohepta[1,2-c]pyridazin-3-yl)-N^3-(7-((2R)-2-(carboxy)pyrrolidin-1-yl)-6,7,8,9-tetrahydro-5H-benzo[7]annulene-2-yl)-1H-1,2,4-triazole-3,5-diamine] yielded an IC50 of less than 1 µM.

Turning to `CCOC(=O)C1CCN(C2CCc3ccc(Nc4nc(N)n(-c5cc6c(nn5)-c5ccccc5CCC6)n4)cc3CC2)CC1` (centres unmarked) [Compound 6, 1-(6,7-dihydro-5H-benzo[6,7]cyclohepta[1,2-c]pyridazin-3-yl)-N^3-(7-(4-(ethoxycarbonyl)piperidin-1-yl)-6,7,8,9-tetrahydro-5H-benzo[7]annulene-2-yl)-1H-1,2,4-triazole-3,5-diamine], the IC50 was less than 1 µM.

Turning to `Nc1nc(Nc2ccc3c(c2)CCC(N2CCC(C(=O)O)CC2)CC3)nn1-c1cc2c(nn1)-c1ccccc1CCC2` (centres unmarked) [Compound 7, 1-(6,7-dihydro-5H-benzo[6,7]cyclohepta[1,2-c]pyridazin-3-yl)-N^3-(7-(4-(carboxy)piperidin-1-yl)-6,7,8,9-tetrahydro-5H-benzo[7]annulene-2-yl)-1H-1,2,4-triazole-3,5-diamine], the IC50 is less than 1 µM.

Regarding `CN(CC(=O)O)C1CCc2ccc(Nc3nc(N)n(-c4cc5c(nn4)-c4ccccc4CCC5)n3)cc2CC1` (centres unmarked) [Compound 8, 1-(6,7-dihydro-5H-benzo[6,7]cyclohepta[1,2-c]pyridazin-3-yl)-N^3-(7-((carboxymethyl)(methyl)amino)-6,7,8,9-tetrahydro-5H-benzo[7]annulene-2-yl)-1H-1,2,4-triazole-3,5-diamine], the IC50 was 1 to 10 µM.

For `CCOC(=O)CN1CCN(C2CCc3ccc(Nc4nc(N)n(-c5cc6c(nn5)-c5ccccc5CCC6)n4)cc3CC2)CC1` (centres unmarked) [Compound 9, 1-(6,7-dihydro-5H-benzo[6,7]cyclohepta[1,2-c]pyridazin-3-yl)-N^3-(7-(4-(ethoxycarbonylmethyl)piperazin-1-yl)-6,7,8,9-tetrahydro-5H-benzo[7]annulene-2-yl)-1H-1,2,4-triazole-3,5-diamine], the IC50 is less than 1 µM.

Compound `Nc1nc(Nc2ccc3c(c2)CCC(N2CCN(CC(=O)O)CC2)CC3)nn1-c1cc2c(nn1)-c1ccccc1CCC2` (centres unmarked) [Compound 10, 1-(6,7-dihydro-5H-benzo[6,7]cyclohepta[1,2-c]pyridazin-3-yl)-N^3-(7-(4-(carboxymethyl)piperazin-1-yl)-6,7,8,9-tetrahydro-5H-benzo[7]annulene-2-yl)-1H-1,2,4-triazole-3,5-diamine] came in with a 50% inhibitory concentration (IC50) of 1 to 10 µM.

As for `Nc1nc(Nc2cccc3c2CCC(N2CCCC2)CC3)nn1-c1cc2c(nn1)-c1ccccc1CCC2` (centres unmarked) [Compound 11, 1-(6,7-dihydro-5H-benzo[6,7]cyclohepta[1,2-c]pyridazin-3-yl)-N^3-(7-(pyrrolidin-1-yl)-6,7,8,9-tetrahydro-5H-benzo[7]annulene-1-yl)-1H-1,2,4-triazole-3,5-diamine], the IC50 is more than 20 µM.

`CC(C)(C)OC(=O)N[C@H]1CCc2ccc(Nc3nc(N)n(-c4cc5c(nn4)-c4ccccc4CCC5)n3)cc2CC1` [Compound 13, 1-(6,7-dihydro-5H-benzo[6,7]cyclohepta[1,2-c]pyridazin-3-yl)-N^3-((7S)-7-(t-butoxycarbonylamino)-6,7,8,9-tetrahydro-5H-benzo[7]annulene-2-yl)-1H-1,2,4-triazole-3,5-diamine] had an IC50 of more than 20 µM.

Staying with this assay, now noted: Hela cells, stimulated by Axl-antibody cross-linking, phospho-Akt chemiluminescence; Table 2, formula (Ib).
For the compound `Nc1nc(Nc2cccc3c2CCC(N2CCCC2)CC3)n(-c2cc3c(nn2)-c2ccccc2CCC3)n1` (centres unmarked) [Compound 12, 1-(6,7-dihydro-5H-benzo[6,7]cyclohepta[1,2-c]pyridazin-3-yl)-N^5-(7-(pyrrolidin-1-yl)-6,7,8,9-tetrahydro-5H-benzo[7]annulene-1-yl)-1H-1,2,4-triazole-3,5-diamine], the IC50 is less than 1 µM.

Compound `CC(C)(C)OC(=O)N[C@H]1CCc2ccc(Nc3nc(N)nn3-c3cc4c(nn3)-c3ccccc3CCC4)cc2CC1` [Compound 14, 1-(6,7-dihydro-5H-benzo[6,7]cyclohepta[1,2-c]pyridazin-3-yl)-N^5-((7S)-7-(t-butoxycarbonylamino)-6,7,8,9-tetrahydro-5H-benzo[7]annulene-2-yl)-1H-1,2,4-triazole-3,5-diamine] came in with an IC50 of more than 20 µM.
